In patent US9326513B2, “Fungicidal compositions” (Syngenta Participations AG, priority 2011, dated 2016):

How the values were obtained:
[1] = test system: Blumeria graminis f. sp. tritici (Erysiphe graminis f. sp. tritici); assay: Blumeria graminis f. sp. tritici / wheat / leaf disc preventative (powdery mildew on wheat); type: in vivo; details: foliar, compared to untreated control leaf disks, read-out: disease control
In short: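 Wheat leaf segments (cv. Kanzler) on agar were sprayed with formulated compound in water, inoculated with powdery mildew 1 day later, and kept at 20° C, 60% rh (24 h dark, then 12 h light/12 h dark). Percent disease control versus untreated scored 6-8 days after application; tested at 200 ppm.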

[2] = test system: Phakopsora pachyrhizi (triazole tolerant soybeanrust strain); assay: Phakopsora pachyrhizi on soybean, preventive treatment; type: in vivo; details: solo, soybean leaf discs, 1 day preventive, 11 days after application
[3] = test system: Mycosphaerella arachidis (y. Cercospora arachidicola); assay: Mycosphaerella arachidis (brown leaf spot of groundnut), PDB microtiter plate, visual after 5-6 days; type: cell-based; details: single compound
[4] = test system: Fusarium graminearum and Fusarium culmorum; type: in vivo; details: solo, 200 g a.i./ha; wheat, 1 day preventive, 9 days after application
[5] = test system: Puccinia recondita f. sp. tritici; assay: Puccinia recondita f. sp. tritici / wheat / leaf disc curative (brown rust); type: in vivo; details: foliar, compared to untreated control leaf disks, read-out: disease control
Protocol: Puccinia recondita f. sp. tritici/Wheat/Leaf Disc Curative (Brown Rust) Wheat leaf segments cv. Kanzler are placed on agar in multiwell plates (24-well format). The leaf segments are inoculated with a spore suspension of the fungus. Plates were stored in darkness at 19° C. and 75% rh. The formulated test compound diluted in water was applied 1 day after inoculation.

Botrytis cinerea = Botrytis cinerea (gray mould), PDB microtiter plate, visual after 72 hrs; type: cell-based; details: Botrytis cinerea, alone
[6] = test system: Puccinia recondita f. sp. tritici; assay: Puccinia recondita f. sp. tritici / wheat / leaf disc preventative (brown rust); type: in vivo; details: foliar, compared to untreated control leaf disks, read-out: disease control
Description: Puccinia recondita f. sp. tritici/Wheat/Leaf Disc Preventative (Brown Rust) Wheat leaf segments cv. Kanzler were placed on agar in multiwell plates (24-well format) and sprayed with the formulated test compound diluted in water. The leaf disks were inoculated with a spore suspension of the fungus 1 day after application.

[7] = test system: Monographella nivalis (syn. Microdochium nivale, Fusarium nivale); assay: Monographella nivalis (snow mould, foot rot of cereals), PDB microtiter plate, visual after 72 hrs; type: cell-based; details: applied alone
Septoria tritici [8] = assay: Septoria tritici (leaf blotch), YBG microtiter plate, photometric growth inhibition after 6 days; type: cell-based; details: Zymoseptoria tritici, 144 h, solo
Sclerotinia sclerotiorum = Sclerotinia sclerotiorum on oilseed rape, preventive treatment; type: in vivo; details: solo, 1 day preventive, 11 days after application
Description: In the following Tables ‘Activity (%)’ means the assessed experimental activity (% disease control in this test when compared to untreated control leaf disks under the same conditions, which show extensive disease development) and “P” is the expected value calculated (expected) activity according to the COLBY formula (see above). The column headed ‘S?’ indicates whether or not synergy was observed, with ‘y’ meaning that synergy was observed.
Sclerotinia sclerotiorum on Oilseed Rape, Preventive Treatment
The compound activity was tested under 1 day preventive conditions. Oilseed rape plants with 3 unfolded leafs were sprayed with a track sprayer and 200 I/ha spray volume with the test compounds, either solo or in tankmix as shown in the table below.
1 day after application the plants were infested with a solution of Sclerotinia sclerotiorum mycelium. The plants were placed under plastic hoods and high humidity conditions in a climate chamber at 14 h day/10 h night cycle and 15° C. Disease infestation was evaluated visually 11 days after application and average activity calculated in relation to disease severity on untreated check.

Septoria tritici [9] = assay: Septoria tritici (leaf blotch), PDB microtiter plate, visual after 72 hrs; type: cell-based; details: Zymoseptoria tritici, single compound
Septoria tritici [10] = assay: Septoria tritici on wheat, preventive treatment; type: in vivo; details: solo, wheat Riband, 1 day preventive, 18 days after application

Structure (SMILES): CCN(C)/C=N/c1cc(Br)c(OC(C)c2cc(F)cc(F)c2)nc1C (stereo not drawn) [Q.113]
- pest or weed control at 200 ppm [1]: ≥ 50%
- Activity ([2]; rate 0.5 g ai/ha): 1%
- Activity ([2]; rate 2 g ai/ha): 25%
- inhibition at 0.0078125 ppm ([3]; Mycosphaerella arachidis, 0.0078125 ppm, read-out: Activity (%)): 0%
- inhibition at 0.015625 ppm ([3]; Mycosphaerella arachidis, 0.015625 ppm, read-out: Activity (%)): 0%
- inhibition at 0.25 ppm ([3]; Mycosphaerella arachidis, 0.25 ppm, read-out: Activity (%)): 70%
- inhibition at 0.5 ppm ([3]; Mycosphaerella arachidis, 0.5 ppm, read-out: Activity (%)): 70%
- Activity (%) ([3]; 0.125 ppm): 50%
- Activity [4]: 23%
- pest or weed control at 200 ppm [5]: ≥ 50%
- inhibition at 0.00390625 ppm (Botrytis cinerea; rate 0.00390625 ppm): 0%
- inhibition at 0.0078125 ppm (Botrytis cinerea; rate 0.0078125 ppm): 0%
- inhibition at 0.015625 ppm (Botrytis cinerea; rate 0.015625 ppm): 0%
- inhibition at 0.03125 ppm (Botrytis cinerea; rate 0.03125 ppm, read-out: Activity (%)): 0%
- inhibition at 0.0625 ppm (Botrytis cinerea; rate 0.0625 ppm, read-out: Activity (%)): 0%
- inhibition at 0.125 ppm (Botrytis cinerea; rate 0.125 ppm): 0%
- inhibition at 0.25 ppm (Botrytis cinerea; rate 0.25 ppm): 0%
- inhibition at 0.5 ppm (Botrytis cinerea; rate 0.5 ppm): 0%
- inhibition at 1 ppm (Botrytis cinerea; rate 1 ppm): 0%
- inhibition at 2 ppm (Botrytis cinerea; rate 2 ppm): 0%
- pest or weed control at 200 ppm [6]: ≥ 50%
- inhibition at 0.00390625 ppm ([7]; Monographella nivalis, 0.00390625 ppm): 0%
- inhibition at 0.0078125 ppm ([7]; Monographella nivalis, 0.0078125 ppm): 0%
- inhibition at 0.015625 ppm ([7]; Monographella nivalis, 0.015625 ppm): 0%
- inhibition at 0.03125 ppm ([7]; Monographella nivalis, 0.03125 ppm): 0%
- inhibition at 0.0625 ppm ([7]; Monographella nivalis, 0.0625 ppm): 0%
- inhibition at 0.125 ppm ([7]; Monographella nivalis, 0.125 ppm): 0%
- inhibition at 0.25 ppm ([7]; Monographella nivalis, 0.25 ppm): 0%
- inhibition at 2 ppm ([7]; Monographella nivalis, 2 ppm): 70%
- inhibition at 2 ppm ([7]; Monographella nivalis, rate 2 ppm): 70%
- Activity (%) ([7]; 0.5 ppm): 20%
- Activity (%) ([7]; 1 ppm): 20%
- Activity (%) ([7]; rate 0.125 ppm): 2%
- Activity (%) ([7]; rate 0.25 ppm): 2%
- Activity (%) ([7]; rate 0.5 ppm): 20%
- Activity (%) ([7]; rate 1 ppm): 20%
- inhibition of growth at 0.0195312 ppm (Septoria tritici [8]; rate 0.01953125 ppm): 15%
- inhibition of growth at 0.0390625 ppm (Septoria tritici [8]; rate 0.0390625 ppm): 28%
- inhibition of growth at 0.078125 ppm (Septoria tritici [8]; rate 0.078125 ppm): 31%
- inhibition of growth at 0.15625 ppm (Septoria tritici [8]; rate 0.15625 ppm, read-out: Activity): 42%
- inhibition of growth at 0.3125 ppm (Septoria tritici [8]; rate 0.3125 ppm): 34%
- inhibition of growth at 0.625 ppm (Septoria tritici [8]; rate 0.625 ppm): 39%
- inhibition of growth at 1.25 ppm (Septoria tritici [8]; rate 1.25 ppm): 42%
- inhibition of growth at 10 ppm (Septoria tritici [8]; rate 10 ppm): 63%
- Activity (Sclerotinia sclerotiorum; rate 25 ppm): 2%
- Activity (Sclerotinia sclerotiorum; rate 50 ppm): 2%
- Activity (Sclerotinia sclerotiorum; rate 100 ppm): 39%
- inhibition at 0.00390625 ppm (Septoria tritici [9]; 0.00390625 ppm): 0%
- inhibition at 0.0078125 ppm (Septoria tritici [9]; 0.0078125 ppm): 0%
- inhibition at 0.015625 ppm (Septoria tritici [9]; 0.015625 ppm): 0%
- inhibition at 0.03125 ppm (Septoria tritici [9]; 0.03125 ppm): 0%
- inhibition at 0.0625 ppm (Septoria tritici [9]; 0.0625 ppm): 0%
- inhibition at 0.125 ppm (Septoria tritici [9]; 0.125 ppm): 0%
- inhibition at 0.25 ppm (Septoria tritici [9]; 0.25 ppm, read-out: Activity (%)): 0%
- inhibition at 0.5 ppm (Septoria tritici [9]; 0.5 ppm): 0%
- inhibition at 1 ppm (Septoria tritici [9]; 1 ppm): 0%
- inhibition at 2 ppm (Septoria tritici [9]; 2 ppm): 0%
- Activity (Septoria tritici [10]; 1 g a.i./ha): 1%
- Activity (Septoria tritici [10]; 3 g a.i./ha): 0%
- Activity (Septoria tritici [10]; 81 g a.i./ha): 53%
